Measured values as given in patent US9115101B2 (Genentech, Inc., priority 2012, dated 2015).
Read-outs that look alike come from different tables or passages of the source.

Molecular target: T1, RORc ligand binding domain (Homo sapiens, UniProt P51449)
T1 construct: host or cells: E. coli
T1 sequence (P51449 269-508 limits assumed): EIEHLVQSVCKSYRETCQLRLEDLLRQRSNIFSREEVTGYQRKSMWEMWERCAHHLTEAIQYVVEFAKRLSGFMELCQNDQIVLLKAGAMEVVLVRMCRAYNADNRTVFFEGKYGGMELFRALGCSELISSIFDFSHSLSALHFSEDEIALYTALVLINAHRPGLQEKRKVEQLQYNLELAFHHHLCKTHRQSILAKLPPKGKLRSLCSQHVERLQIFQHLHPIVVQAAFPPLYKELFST
Test: In Vitro RORc Ligand Binding Assay (25-[3H]hydroxycholesterol radioligand filtration)
Conditions: read-out: RORc IC50

[1] = In Vitro RORc Ligand Binding Assay, Table 4

IC50 [nM] | IC50 [1] [nM] | SMILES
585 |  | C[C@H]1CCC(c2ccccc2)S(=O)(=O)N1Cc1ccc(N2CCC(C)(n3cnnc3)CC2)cc1F (single isomer, unassigned) [Example 412]
6 |  | C[C@H]1CCC(c2ccccc2)S(=O)(=O)N1Cc1ccc(N2CCC(c3cn[nH]c3)CC2)cc1 (stereo partly drawn) [Example 414, (3S)-Methyl-6-phenyl-2-{4-[4-(1H-pyrazol-4-yl)-piperidin-1-yl]-benzyl}-[1,2]thiazinane 1,1-dioxide]
 | 11 | C[C@H]1CCC(c2ccccc2)S(=O)(=O)N1Cc1ccc(N2CCC(n3ccnc3)CC2)cc1F (stereo partly drawn) [Example 217, (3S)-2-[2-Fluoro-4-(4-imidazol-1-yl-piperidin-1-yl)-benzyl]-3-methyl-6-phenyl-[1,2]thiazinane 1,1-dioxide]
 | 42 | C[C@H]1CCC(c2ccccc2)S(=O)(=O)N1Cc1ccc(N2CCC(c3ncno3)CC2)cc1F (single isomer, unassigned) [Example 219]
 | 86 | N#CCC(=O)N1CCN(c2ccc(CN3CCCCC(c4ccccc4)S3(=O)=O)c(F)c2)CC1 (single isomer, unassigned) [Example 303, 3-{4-[4-(1,1-Dioxo-7-phenyl-[1,2]thiazepan-2-ylmethyl)-3-fluoro-phenyl]-piperazin-1-yl}-3-oxo-propionitrile]
 | 45 | CC(=O)N1CCN(c2ccc(CN3CCOCC(c4ccccc4)S3(=O)=O)c(F)c2)CC1 (single isomer, unassigned) [Example 23, 1-{4-[4-(4,4-Dioxo-3-phenyl-[1,4,5]oxathiazepan-5-ylmethyl)-3-fluoro-phenyl]-piperazin-1-yl}-ethanone]
 | 18 | CC(=O)N1CCN(c2ccc(CN3[C@@H](C)CCC(c4ccccc4)S3(=O)=O)c(F)c2)C[C@H]1C (stereo partly drawn) [Example 264, 1-{4-[3-Fluoro-4-((3S)-methyl-1,1-dioxo-6-phenyl-[1,2]thiazinan-2-ylmethyl)-phenyl]-2-methyl-piperazin-1-yl}-ethanone]
 | 32 | CC(=O)N1CCN(c2ccc(CN3CCC(C)CC(c4ccccc4)S3(=O)=O)c(F)c2)CC1 (single isomer, unassigned) [Example 333, 1-{4-[3-Fluoro-4-(5-methyl-1,1-dioxo-7-phenyl-[1,2]thiazepan-2-ylmethyl)-phenyl]-piperazin-1-yl}-ethanone]
 | 86 | CS(=O)(=O)N1CCC(Oc2ccc(CN3CCCC(c4ccccc4)S3(=O)=O)c(F)c2)CC1 (single isomer, unassigned) [Example 3]
316 |  | C[C@H]1CCC(c2ccccc2)S(=O)(=O)N1Cc1ccc(N2CC(n3cnnc3)C2)cc1F (single isomer, unassigned) [Example 429]
 | 77 | CC(=O)N1CCN(c2ccc(CN3[C@@H](C)CCC(c4ccc(Cl)cc4)S3(=O)=O)c(F)c2)CC1 (single isomer, unassigned) [Example 174]
 | 50 | CC(=O)N1CCN(c2ccc(CN3CCCCC(c4ccccc4)S3(=O)=O)cc2F)CC1 (single isomer, unassigned) [Example 346, 1-{4-[4 (1,1-Dioxo-7-phenyl-[1,2]thiazepan-2-ylmethyl)-2-fluoro-phenyl]-piperazin-1-yl}-ethanone]
 | 1500 | CC(=O)N1CCN(c2ccc(CN3[C@@H](C)CCC(c4ccccc4)S3(=O)=O)cn2)CC1 (single isomer, unassigned) [Example 43]
 | 14 | C[C@H]1CCC(c2ccccc2)S(=O)(=O)N1Cc1ccc(OC2CCN(S(C)(=O)=O)CC2)cc1 (single isomer, unassigned) [Example 44]
 | 1500 | CC(=O)N1CCN(c2ccc(CN3[C@H](C)CCC(c4ccccc4)S3(=O)=O)cn2)CC1 (single isomer, unassigned) [Example 48]
 | 751 | CC(=O)N1CCN(c2ccc(CN3CCOCC(c4ccccc4)S3(=O)=O)c(F)c2)CC1 (single isomer, unassigned) [Example 22, 1-{4-[4-(4,4-Dioxo-3-phenyl-[1,4,5]oxathiazepan-5-ylmethyl)-3-fluoro-phenyl]-piperazin-1-yl}-ethanone]
 | 3 | CC[C@H]1CCC(c2ccccc2)S(=O)(=O)N1Cc1ccc(NC2CCN(S(C)(=O)=O)CC2)cc1F (single isomer, unassigned) [Example 239]
 | 118 | CC(=O)N1CCCN(c2ccc(CN3[C@@H](C)CCC(c4ccccc4)S3(=O)=O)c(F)c2)CC1 (single isomer, unassigned) [Example 81]
 | 5350 | C[C@H]1CCC(c2ccccc2)S(=O)(=O)N1Cc1ccc(C(=O)N2CC(c3nncn3C)C2)cc1 (stereo partly drawn) [Example 295, [4-((3S)-Methyl-1,1-dioxo-6-phenyl-[1,2]thiazinan-2-ylmethyl)-phenyl]-[3-(4-methyl-4H-[1,2,4]triazol-3-yl)-azetidin-1-yl]-methanone]
 | 2000 | CC(=O)N1CCN(c2ccc(CN3[C@H](C)COCC(c4ccccc4)S3(=O)=O)c(F)c2)CC1 (single isomer, unassigned) [Example 26]

IC50 [nM] | IC50 [1] [nM] | SMILES
 | 926 | N#CCC(=O)N1CCN(c2ccc(CN3CCCCC(c4ccccc4)S3(=O)=O)cc2)CC1 (single isomer, unassigned) [Example 312, 3-{4-[4-(1,1-Dioxo-7-phenyl-[1,2]thiazepan-2-ylmethyl)-phenyl]-piperazin-1-yl}-3-oxo-propionitrile]
878 |  | C[C@H]1CCC(c2ccccc2)S(=O)(=O)N1Cc1ccc(N2CCC(N3CCCC3=O)CC2)cc1F (stereo partly drawn)
 | 49 | C[C@H](O)C(=O)N1CCCN(c2ccc(CN3[C@@H](C)CCC(c4ccccc4)S3(=O)=O)c(F)c2)CC1 (single isomer, unassigned) [Example 93]
 | 24 | CC(=O)N1CCN(c2ccc(CN3C[C@H](C)OCC(c4ccccc4)S3(=O)=O)c(F)c2)CC1 (single isomer, unassigned) [Example 29]
 | 8 | CS(=O)(=O)N1CCC(Nc2ccc(CN3CCCCC(c4ccccc4)S3(=O)=O)c(F)c2)CC1 (single isomer, unassigned) [Example 345, [4-(1,1-Dioxo-7-phenyl-[1,2]thiazepan-2-ylmethyl)-3-fluoro-phenyl]-(1-methanesulfonyl-piperidin-4-yl)-amine]
 | 308 | CC(=O)N1CCN(c2ccc(CN3C4CC(C4)CC(c4ccccc4)S3(=O)=O)c(F)c2)CC1 (single isomer, unassigned) [Example 301, 1-{4-[4-(3,3-Dioxo-4-pheny-3-thia-2-aza-bicyclo[4.1.1]oct-2-ylmethyl)-3-fluoro-phenyl]-piperazin-1-yl}-ethanone]
 | 149 | CC(=O)N1CCN(c2ccc(CN3CCCC(c4ccccc4)S3(=O)=O)c(F)c2)CC1 (stereo not drawn) [Example 10, 1-{4-[4-(1,1-Dioxo-6-phenyl-[1,2]thiazinan-2-ylmethyl)-3-fluoro-phenyl]-piperazin-1-yl}-ethanone]
 | 7600 | CC(=O)N1CCN(c2ccc(CN3CCC(c4ccc(F)cc4)S3(=O)=O)c(F)c2)CC1 (stereo not drawn) [Example 9, 1-(4-{3-Fluoro-4-[5-(4-fluoro-phenyl)-1,1-dioxo-isothiazolidin-2-ylmethyl]-phenyl}-piperazin-1-yl)-ethanone]
 | 244 | C[C@H]1CCC(c2ccccc2)S(=O)(=O)N1Cc1ccc(N2CCn3nccc3C2)cc1F (single isomer, unassigned) [Example 133]
 | 1100 | C[C@H]1CCC(c2ccccc2)S(=O)(=O)N1Cc1ccc(C(=O)N2CCC(CO)CC2)cc1 (stereo partly drawn) [Example 278, (4-Hydroxymethyl-piperidin-1-yl)-[4-((3S)-methyl-1,1-dioxo-6-phenyl-[1,2]thiazinan-2-ylmethyl)-phenyl]-methanone]
6500 |  | C[C@H]1CCC(c2ccccc2)S(=O)(=O)N1Cc1ccc(C(=O)NC2CCC(O)C2)cc1 (single isomer, unassigned) [Example 410]
 | 3180 | CC(=O)N1CCN(c2ccc(CN3[C@@H](C)CCC(c4ccccc4)S3(=O)=O)c(F)c2)C[C@H]1C(=O)NC(C)C (stereo partly drawn) [Example 394, (S)-1-Acetyl-4-[3-fluoro-4-((3S)-methyl-1,1-dioxo-6-phenyl-[1,2]thiazinan-2-ylmethyl)-phenyl]-piperazine-2-carboxylic acid isopropylamide]
88 |  | C[C@H]1CCC(c2ccccc2)S(=O)(=O)N1Cc1ccc(N2CC(n3cnnc3)C2)cc1F (stereo partly drawn) [Example 428, 2-[2-Fluoro-4-(3-[1,2,4]triazol-4-yl-azetidin-1-yl)-benzyl]-(3S)-methyl-6-phenyl-[1,2]thiazinane 1,1-dioxide]
 | 104 | CC(=O)N1CCN(c2ccc(CN3C[C@H](C)OCC(c4ccccc4)S3(=O)=O)c(F)c2)CC1 (single isomer, unassigned) [Example 28]
 | 192 | C[C@H]1CCC(c2ccccc2)S(=O)(=O)N1Cc1ccc(N2CCC(c3nnn[nH]3)CC2)cc1F (single isomer, unassigned) [Example 142]
 | 37 | CC(=O)N1CCN(c2ccc(CN3C(C)CCCC(c4ccccc4)S3(=O)=O)c(F)c2)CC1 (single isomer, unassigned) [Example 330, 1-{4-[3-Fluoro-4-(3-methyl-1,1-dioxo-7-phenyl-[1,2]thiazepan-2-ylmethyl)-phenyl]-piperazin-1-yl}-ethanone]
228 |  | CC(=O)N1CCN(c2ccc(CN3[C@@H](C)CCC(c4ccccc4)S3(=O)=O)c(F)c2)[C@@H](C(N)=O)C1 (stereo partly drawn) [Example 433, (R)-4-Acetyl-1-[3-fluoro-4-((3S)-methyl-1,1-dioxo-6-phenyl-[1,2]thiazinan-2-ylmethyl)-phenyl]-piperazine-2-carboxylic acid amide]
 | 1770 | C[C@H]1CCC(c2ccccc2)S(=O)(=O)N1Cc1ccc(C(=O)N2CCC(CCNS(C)(=O)=O)CC2)cc1 (stereo partly drawn) [Example 294, N-(2-{1-[4-((3S)-Methyl-1,1-dioxo-6-phenyl-[1,2]thiazinan-2-ylmethyl)-benzoyl]-piperidin-4-yl}-ethyl)-methanesulfonamide]
 | 71 | C[C@H]1CCC(c2ccccc2)S(=O)(=O)N1Cc1ccc(OC2CN(S(C)(=O)=O)C2)cc1F (single isomer, unassigned) [Example 36]
